Key:
TRH-DE [1] = biological target: T1, TRH-DE (Sus scrofa, UniProt A0A287AP33); assay: HPLC assay of peptide hydrolysis by TRH-DE (Glp production); format: biochemical, porcine; settings: for hydrolysis by TRH-DE (release of Glp): 1 mM peptide incubated with TRH-DE 18 h at 37° C., HPLC
T1 construct: The inventor purified TRH-DE from porcine brain according to purification procedures previously published by Dr. K. Bauer; from tissue; host or cells: porcine brain (TRH-DE); bovine kidney (DPP-IV, gift from Dr. C. H. Williams)
T1 sequence (A0A287AP33 1-1066): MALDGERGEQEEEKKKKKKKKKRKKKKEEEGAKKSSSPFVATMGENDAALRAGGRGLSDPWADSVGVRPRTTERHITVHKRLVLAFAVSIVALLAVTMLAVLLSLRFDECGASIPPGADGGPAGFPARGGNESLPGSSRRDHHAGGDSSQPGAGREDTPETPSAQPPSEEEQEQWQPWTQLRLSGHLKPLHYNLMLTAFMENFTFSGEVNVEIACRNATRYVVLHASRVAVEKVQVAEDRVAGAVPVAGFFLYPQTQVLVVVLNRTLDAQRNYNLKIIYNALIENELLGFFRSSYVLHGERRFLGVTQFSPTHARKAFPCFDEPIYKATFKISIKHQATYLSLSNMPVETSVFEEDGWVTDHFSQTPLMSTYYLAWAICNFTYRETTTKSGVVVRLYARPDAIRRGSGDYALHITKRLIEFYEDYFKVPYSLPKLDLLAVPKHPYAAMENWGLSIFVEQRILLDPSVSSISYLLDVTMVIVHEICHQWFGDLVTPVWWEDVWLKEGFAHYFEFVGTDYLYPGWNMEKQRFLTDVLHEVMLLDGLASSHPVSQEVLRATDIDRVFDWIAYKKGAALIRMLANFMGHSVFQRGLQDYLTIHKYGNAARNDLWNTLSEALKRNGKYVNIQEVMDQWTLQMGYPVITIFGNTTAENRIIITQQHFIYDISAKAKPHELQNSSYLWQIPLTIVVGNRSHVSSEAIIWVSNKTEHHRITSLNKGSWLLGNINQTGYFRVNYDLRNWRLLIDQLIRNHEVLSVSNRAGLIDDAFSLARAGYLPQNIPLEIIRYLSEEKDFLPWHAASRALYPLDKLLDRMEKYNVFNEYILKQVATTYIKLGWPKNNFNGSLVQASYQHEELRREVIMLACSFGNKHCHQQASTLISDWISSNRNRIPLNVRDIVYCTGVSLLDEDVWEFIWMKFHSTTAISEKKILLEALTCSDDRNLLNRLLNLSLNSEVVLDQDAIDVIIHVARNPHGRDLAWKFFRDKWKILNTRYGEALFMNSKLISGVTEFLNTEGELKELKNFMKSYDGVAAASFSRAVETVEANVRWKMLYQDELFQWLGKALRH
Description: The inventor purified TRH-DE from porcine brain according to purification procedures previously published by Dr. K. Bauer, (Max-Planck-Institut, Hannover, Germany) (1). TRH-DE was purified almost 20,000 fold. […] Dipeptidyl peptidase IV (DPP-IV) (EC 3.4.14.5), purified from bovine kidney (7.7 mg ml^−1, specific activity of 17.5 U mg^−1 with Gly-ProAMC as substrate), was obtained as a gilt from Dr. C. H. Williams (Queen's University Belfast, U.K). (DPP-IV was used as the coupling enzyme used in the fluorometric assays).
One unit (U) of enzyme activity was defined as that amount catalysing the formation of one μmol of product in one minute under the standard conditions employed. All incubations in the assays described below were carried out in 20 mM potassium phosphate buffer, pH 7.5, at 37° C.
Kinetic analysis of the peptide library using HPLC—The ability of each peptide in the library to act as a TRH-DE substrate was assessed using HPLC. As an initial screen, 1 mM peptide was incubated with 0.8 μg TRH-DE in a total volume of 1 ml for 18 h at 37° C. Control samples were included in which peptide (1 mM) or Glp (0.2 mM-0.8 mM) were incubated under identical conditions in the absence of TRH-DE. TRH-DE activity was terminated by the addition of TFA (0.15% v/v) and samples were then analysed using HPLC as described previously (24). Products resulting from TRH-DE hydrolysis could be separated on a C-18 reverse-phase column (Hypersil, UK) using a linear gradient of 0-70% acetonitrile in 0.08% (v/v) TFA. The concentration of Glp formed by the action of TRH-DE on the peptide library was measured by UV absorbance at 206 nm with a quantitative detection limit of 0.1 mM for a 40 μl injection volume, employing a signal to noise ratio of 10. Following the incubation of each peptide with TRH-DE, evidence of Glp in the sample was taken to indicate that the peptide was a TRH-DE substrate.
The rates of hydrolysis for each of those peptides identified as substrates were then compared by measuring Gip production using microassays with shorter incubation times. In these assays peptide (1 mM) was incubated at 37° C. in a total volume of 100 μl. 0.8-3.2 μg TRH-DE and incubations times of 5 min to 18 h were used routinely. Measurements were made in triplicate. The rate of TRH-OH hydrolysis was also measured by this method.

Male Wistar rats [2] = assay: behavioural effects (WDS, locomotion) after i.c.v. administration; format: in vivo, rat; settings: 30 min
Description: Methods: Behavioural studies were conducted using experimentally naïve Male Wistar rats (200-250 g) maintained in a temperature controlled (21° C.), artificially-lighted (12 hr light cycle) room with free access to food and water. Behavioural effects of […] following intra-cerebroventricular (i.c.v.) administration: Animals were implanted with guide cannula aimed at the lateral cerebral ventricles (AP-0.92 mm, ML-1.5 mm, DV-2.6 mm relative to Bregma, atlas of Paxinos & Watson) under halothane anaesthesia. One week following surgery placement of the cannulae was assessed by the ability of a microinjection of angiotensin II (200 ng in 1 μl) to induce drinking behaviour. […] They were then administered either vehicle (1 μl 0.9% saline) or […] (5 μg in 1 μl) followed 1 minute later by vehicle (1 μl 0.9% saline) or TRH (5 μg in 1 μl). One minute after the last i.c.v. injection animals were placed back into the perspex cage and their behaviour monitored by a computer automated tracking system for 30 minutes (Ethovision Pro, Noldus) to provide measures of locomotor activity. Animals were videotaped for subsequent blind analysis of WDS behaviour by a trained observer. A threshold dose of 5 μg TRH was chosen for i.c.v. administration so that if […] enhanced responses to TRH, this would be clearly visible. The statistical significance of differences between behavioural effects of treatments was determined using the Student's t-test or ANOVA, followed by a post-ANOVA test, as indicated. Radioligand binding data were analysed using non-linear curve fitting software (Prism, Graph Pad Software Inc.). IC50 values calculated from competition experiments were converted to Ki values using the Cheng-Prusoff (41) equation Ki=IC50/(1+L/Kd), where L=ligand concentration and Kd=the apparent dissociation constant for [^3[…].

Male Wistar rats [3] = assay: behavioural effects (activity score, WDS, locomotion) after i.p. administration; format: in vivo, rat; settings: i.p.
Description: Methods: Behavioural studies were conducted using experimentally naïve Male Wistar rats (200-250 g) maintained in a temperature controlled (21° C.), artificially-lighted (12 hr light cycle) room with free access to food and water. Behavioural effects of TRH±TRH-DE inhibitor following intraperitoneal (i.p.) administration: On the day of the experiment, animals were singly housed in perspex cages (30×20×20 cm) and allowed to acclimatize for 20 min. After this period, two baseline measurements of behaviour were made at 10 and 5 min prior to administration of drugs. […] Animals were then observed by two independent observers who were blind to treatment, every 5 min for 30 sec. Blocks of 5 animals were treated at a time, 1 per drug group. Blocks were repeated 5 times. The occurrence of individual behaviours were noted using a behavioural check list, which included grooming, locomotion, rearing, chewing, sniffing, head weave, tail elevation, and/or straub tail and WDS behaviours. These behaviours were summed to yield an overall activity count. Animals were videotaped for separate subsequent analysis of WDS. All WDS behaviours occurring during each 5 min interval after drug administration were counted. The statistical significance of differences between behavioural effects of treatments was determined using the Student's t-test or ANOVA, followed by a post-ANOVA test, as indicated. Radioligand binding data were analysed using non-linear curve fitting software (Prism, Graph Pad Software Inc.). IC50 values calculated from competition experiments were converted to Ki values using the Cheng-Prusoff (41) equation Ki=IC50/(1+L/Kd), where L=ligand concentration and Kd=the apparent dissociation constant for [^3[…].

[4] = biological target: TRH receptors in rat cortical membranes; assay: radioligand binding to ^3H-3MeHis-TRH-labelled receptors in rat cortex; settings: competition with 6-8 nM ^3H-3MeHis-TRH, Cheng-Prusoff
Description: Evaluation of the ability of TRH, Glp-Asn-ProNH2, and Glp-Asn-ProAMC to bind to ^3H-3MeHis-TRH-labelled receptors in rat cortex: Radioligand binding assays were conducted to investigate the possibility that the two TRH-DE inhibitors might exert their effects by acting independently at TRH receptors in the brain.
Cortex tissue from male Sprague-Dawley rats (250 g) was dissected out, weighed and homogenised in 30 volumes of ice-cold sodium phosphate buffer (0.02 M, pH 7.5). The homogenates were centrifuged at 30,000 g at 4° C. for 30 min. The supernatant was discarded and the pellet was resuspended at 100 mg wet wt/ml in buffer containing 177 μM bacitracin. […] Non-specific binding was defined in the presence of 10 μM TRH.
The statistical significance of differences between behavioural effects of treatments was determined using the Student's t-test or ANOVA, followed by a post-ANOVA test, as indicated. Radioligand binding data were analysed using non-linear curve fitting software (Prism, Graph Pad Software Inc.). IC50 values calculated from competition experiments were converted to Ki values using the Cheng-Prusoff (41) equation Ki=IC50/(1+L/Kd), where L=ligand concentration and Kd=the apparent dissociation constant for [^3H]-[3-MeHis]TRH.

TRH-DE [5] = biological target: T1, TRH-DE; settings: From Ref. 23 (inventor's publication); cited from earlier work

- hydrolysis by TRH-DE (release of Glp) (TRH-DE [1]): degraded fully
- hydrolysis by TRH-DE (release of Glp) (TRH-DE [1]; listed as TRH): no TRH (RT 8.566 min) remained
- Vmax (TRH-DE [1]; estimated from HPLC rates of hydrolysis using Vmax=vo{(Km+[S])/[S]}): 2.63 ± 0.26 (11) U mg^−1
- Rate of hydrolysis (TRH-DE [1]; peptide 1 mM, 37° C., Glp production by HPLC, mean±S.D.): 2.54 ± 0.25 (11) U mg^−1
- pKi [4]: 7.65±0.17
SMILES: NC(=O)[C@@H]1CCCN1C(=O)[C@H](Cc1cnc[nH]1)NC(=O)[C@@H]1CCC(=O)N1 [Glp-His-ProNH2, L-pyroglutamyl-L-histidyl-L-prolineamide]
- number of WDS compared with vehicle (Male Wistar rats [2]; 5 μg alone): Neither TRH nor Glp-Asn-ProAMC alone produced a significantly greater number of WDS than vehicle
- number of WDS during the observation period (Male Wistar rats [2]; TRH 5 μg ± Glp-Asn-ProAMC 5 μg, mean±S.E., n=6): 3.33±1.23 WDS/30 min
- individual behaviours contributing to the activity score (Male Wistar rats [3]; 10 mg/kg): primarily promoted grooming, sniffing, and chewing behaviours
- rat activity scores compared with saline (Male Wistar rats [3]; 10 mg/kg each, 40 min post injection): increase in rat activity scores throughout the 40 min period post injection
- decline of behavioural responses with time (Male Wistar rats [3]; 10 mg/kg each, late observation period): tended to decline 35 min after i.p. administration
- induction of WDS (Male Wistar rats [3]; 10 mg/kg, 40 min observation): immediate induction of WDS in all animals with the response gradually declining to zero after 40 min
- Km (TRH-DE [5]): 35 µM
